Laboratory results as given in US20230278972A1, “SUBSTITUTED HALOALKYL SULFONANILIDE HERBICIDES” (FMC Corporation, priority 2020, published 2023).

Tests used:
Type in all cases: in vivo
[1] = tested on: pigweed (Amaranthus retroflexus); assay: Test A postemergence, pigweed; conditions: Postemergence, 0 to 100 scale (0 no effect, 100 complete control); for Plant response rating, Pigweed: 125 g ai/ha; for Pigweed plant response rating: 500 g ai/ha, visual injury vs untreated controls after approx. 10 days
From the text: (§1) Seeds of plant species selected from barnyardgrass (Echinochloa crus-galli), kochia (Bassia scoparia), ragweed (common ragweed, Ambrosia artemisiifolia), Ryegrass, Italian (Italian ryegrass, Lolium multiflorum), Foxtail, Giant (giant foxtail, Setaria faberi), and pigweed (Amaranthus retroflexus) were planted into a blend of loam soil and sand and treated preemergence with a directed soil spray using test chemicals formulated in a non-phytotoxic solvent mixture which included a surfactant. At the same time, plants selected from these weed species and also wheat (Triticum aestivum), corn (Zea mays), blackgrass (Alopecurus myosuroides), and galium (catchweed bedstraw, Galium aparine) were planted in pots containing the same blend of loam soil and sand and treated with postemergence applications of test chemicals formulated in the same manner. Plants ranged in height from 2 to 10 cm and were in the one- to two-leaf stage for the postemergence treatment. […] A dash (-) response means no test result.

[2] = tested on: blackgrass (Alopecurus myosuroides); assay: Test A postemergence, blackgrass; conditions: Postemergence, 0 to 100 scale (0 no effect, 100 complete control); for Plant response rating, Blackgrass: 125 g ai/ha; for Blackgrass plant response rating: 500 g ai/ha, visual injury vs untreated controls after approx. 10 days
From the text: as §1

kochia (Bassia scoparia) [3] = assay: Test A preemergence, kochia; conditions: Preemergence; for Kochia plant response rating: 125 g ai/ha, visual injury on 0 to 100 scale (0 no effect, 100 complete control), approximately 10 days; for Plant response rating, Kochia: 500 g ai/ha, 0 to 100 scale (0 no effect, 100 complete control)
From the text: as §1

[4] = tested on: Foxtail, Giant (giant foxtail, Setaria faberi); assay: Test A preemergence, Foxtail, Giant; conditions: Preemergence; for Foxtail, Giant plant response rating: 125 g ai/ha, visual injury on 0 to 100 scale (0 no effect, 100 complete control), approximately 10 days; for Plant response rating, Foxtail, Giant: 500 g ai/ha, 0 to 100 scale (0 no effect, 100 complete control)
From the text: as §1

[5] = tested on: wheat (Triticum aestivum); assay: Test A postemergence, wheat; conditions: Postemergence, 0 to 100 scale (0 no effect, 100 complete control); for Plant response rating, Wheat: 125 g ai/ha; for Wheat plant response rating: 500 g ai/ha, visual injury vs untreated controls after approx. 10 days
From the text: as §1

[6] = tested on: Foxtail, Giant (giant foxtail, Setaria faberi); assay: Test A postemergence, Foxtail, Giant; conditions: Postemergence, 0 to 100 scale (0 no effect, 100 complete control); for Plant response rating, Foxtail, Giant: 125 g ai/ha; for Foxtail, Giant plant response rating: 500 g ai/ha, visual injury vs untreated controls after approx. 10 days
From the text: as §1

kochia (Bassia scoparia) [7] = assay: Test A postemergence, kochia; conditions: Postemergence, 0 to 100 scale (0 no effect, 100 complete control); for Plant response rating, Kochia: 125 g ai/ha; for Kochia plant response rating: 500 g ai/ha, visual injury vs untreated controls after approx. 10 days
From the text: as §1

[8] = tested on: Ryegrass, Italian (Italian ryegrass, Lolium multiflorum); assay: Test A postemergence, Ryegrass, Italian; conditions: Postemergence, 0 to 100 scale (0 no effect, 100 complete control); for Plant response rating, Ryegrass, Italian: 125 g ai/ha; for Ryegrass, Italian plant response rating: 500 g ai/ha, visual injury vs untreated controls after approx. 10 days
From the text: as §1

[9] = tested on: ragweed (common ragweed, Ambrosia artemisiifolia); assay: Test A postemergence, ragweed; conditions: Postemergence, 0 to 100 scale (0 no effect, 100 complete control); for Plant response rating, Ragweed: 125 g ai/ha; for Ragweed plant response rating: 500 g ai/ha, visual injury vs untreated controls after approx. 10 days
From the text: as §1

[10] = tested on: barnyardgrass (Echinochloa crus-galli); assay: Test A preemergence, barnyardgrass; conditions: Preemergence; for Barnyardgrass plant response rating: 125 g ai/ha, visual injury on 0 to 100 scale (0 no effect, 100 complete control), approximately 10 days; for Plant response rating, Barnyardgrass: 500 g ai/ha, 0 to 100 scale (0 no effect, 100 complete control)
From the text: as §1

corn (Zea mays) = assay: Test A postemergence, corn; conditions: Postemergence, 0 to 100 scale (0 no effect, 100 complete control); for Plant response rating, Corn: 125 g ai/ha; for Corn plant response rating: 500 g ai/ha, visual injury vs untreated controls after approx. 10 days
From the text: as §1

[11] = tested on: ragweed (common ragweed, Ambrosia artemisiifolia); assay: Test A preemergence, ragweed; conditions: Preemergence; for Ragweed plant response rating: 125 g ai/ha, visual injury on 0 to 100 scale (0 no effect, 100 complete control), approximately 10 days; for Plant response rating, Ragweed: 500 g ai/ha, 0 to 100 scale (0 no effect, 100 complete control)
From the text: as §1

[12] = tested on: barnyardgrass (Echinochloa crus-galli); assay: Test A postemergence, barnyardgrass; conditions: Postemergence, 0 to 100 scale (0 no effect, 100 complete control); for Plant response rating, Barnyardgrass: 125 g ai/ha; for Barnyardgrass plant response rating: 500 g ai/ha, visual injury vs untreated controls after approx. 10 days
From the text: as §1

[13] = tested on: galium (catchweed bedstraw, Galium aparine); assay: Test A postemergence, galium; conditions: Postemergence, 0 to 100 scale (0 no effect, 100 complete control); for Plant response rating, Galium: 125 g ai/ha; for Galium plant response rating: 500 g ai/ha, visual injury vs untreated controls after approx. 10 days
From the text: as §1

[14] = tested on: Ryegrass, Italian (Italian ryegrass, Lolium multiflorum); assay: Test A preemergence, Ryegrass, Italian; conditions: Preemergence; for Ryegrass, Italian plant response rating: 125 g ai/ha, visual injury on 0 to 100 scale (0 no effect, 100 complete control), approximately 10 days; for Plant response rating, Ryegrass, Italian: 500 g ai/ha, 0 to 100 scale (0 no effect, 100 complete control)
From the text: as §1

SMILES | Pigweed plant response rating [1] | Blackgrass plant response rating [2] | Kochia plant response rating (kochia (Bassia scoparia) [3]) | Plant response rating, Kochia (kochia (Bassia scoparia) [3]) | Foxtail, Giant plant response rating [4] | Plant response rating, Foxtail, Giant [4] | Wheat plant response rating [5] | Foxtail, Giant plant response rating [6] | Kochia plant response rating (kochia (Bassia scoparia) [7]) | Ryegrass, Italian plant response rating [8] | Ragweed plant response rating [9] | Barnyardgrass plant response rating [10] | Plant response rating, Barnyardgrass [10] | Corn plant response rating (corn (Zea mays)) | Ragweed plant response rating [11] | Plant response rating, Ragweed [11] | Barnyardgrass plant response rating [12] | Galium plant response rating [13] | Ryegrass, Italian plant response rating [14] | Plant response rating, Ryegrass, Italian [14] | further results
C#CCN(C)C(=O)c1cc(NS(=O)(=O)C(F)(F)F)c(C)c(F)c1C [Compound 179] | 90 | 40 | 90 | 90 | 80 | 100 | 60 | 90 | 70 | 80 | 90 | 90 | 90 | 80 | 90 | 90 | 90 | 90 | 100 | 100 | Plant response rating, Pigweed [1]: 80; Plant response rating, Blackgrass [2]: 20; Plant response rating, Wheat [5]: 0; Plant response rating, Foxtail, Giant [6]: 70; Plant response rating, Kochia (kochia (Bassia scoparia) [7]): 60; Plant response rating, Ryegrass, Italian [8]: 40; Plant response rating, Ragweed [9]: 90; Plant response rating, Corn (corn (Zea mays)): 20; Plant response rating, Barnyardgrass [12]: 90; Plant response rating, Galium [13]: 90
Cc1cc(C(F)(F)F)c(NS(=O)(=O)C(F)(F)F)cc1C(=O)N1CCCCC1 [Compound 165] | 90 | 10 | 90 | 100 | 80 | 90 | 0 | 0 | 60 | 30 | 60 | 20 | 30 | 0 | 50 | 100 | 30 | 90 | 50 | 70 | Plant response rating, Pigweed [1]: 60; Plant response rating, Blackgrass [2]: 0; Plant response rating, Wheat [5]: 0; Plant response rating, Foxtail, Giant [6]: 0; Plant response rating, Kochia (kochia (Bassia scoparia) [7]): 10; Plant response rating, Ryegrass, Italian [8]: 0; Plant response rating, Ragweed [9]: 0; Plant response rating, Corn (corn (Zea mays)): 0; Plant response rating, Barnyardgrass [12]: 0; Plant response rating, Galium [13]: 80
Cc1c(NS(=O)(=O)C(F)(F)F)cc(C(=O)N2CC(C)OC(C)C2)c(C)c1F (stereo not drawn) [Compound 116] | 80 | 40 | 90 | 100 | 60 | 90 | 80 | 80 | 70 | 80 | 90 | 30 | 90 | 80 | 10 | 100 | 90 | 90 | 40 | 90 | Plant response rating, Pigweed ([1]; visual injury approx. 10 days): 60; Plant response rating, Blackgrass ([2]; visual injury approx. 10 days): 0; Plant response rating, Wheat ([5]; visual injury approx. 10 days): 60; Plant response rating, Foxtail, Giant ([6]; visual injury approx. 10 days): 0; Plant response rating, Kochia (kochia (Bassia scoparia) [7]; visual injury approx. 10 days): 30; Plant response rating, Ryegrass, Italian ([8]; visual injury approx. 10 days): 60; Plant response rating, Ragweed ([9]; visual injury approx. 10 days): 90; Plant response rating, Corn (corn (Zea mays); visual injury approx. 10 days): 0; Plant response rating, Barnyardgrass ([12]; visual injury approx. 10 days): 50; Plant response rating, Galium ([13]; visual injury approx. 10 days): 90
Cc1cc(C)c(C2=NOC3(C2)CC(C)OC(C)C3)cc1NS(=O)(=O)C(F)(F)F (single isomer, unassigned) [Compound 171] | 80 | 80 | 70 | 90 | 100 | 100 | 60 | 90 | 70 | 80 | 90 | 90 | 100 | 80 | 80 | 90 | 90 | 90 | 100 | 100 | Plant response rating, Pigweed [1]: 60; Plant response rating, Blackgrass [2]: 40; Plant response rating, Wheat [5]: 60; Plant response rating, Foxtail, Giant [6]: 60; Plant response rating, Kochia (kochia (Bassia scoparia) [7]): 30; Plant response rating, Ryegrass, Italian [8]: 80; Plant response rating, Ragweed [9]: 40; Plant response rating, Corn (corn (Zea mays)): 80; Plant response rating, Barnyardgrass [12]: 90; Plant response rating, Galium [13]: 60
